Laboratory results reported in ChEMBL document CHEMBL5500375, “Design, synthesis, and evaluation of N1,N3-dialkyldioxonaphthoimidazoliums as antibacterial agents against methicillin-resistant Staphylococcus aureus” (Eur J Med Chem, 2024).
In brackets after ≈: the same amount, converted by molar mass. Activity calls are given as the source filed them. No cut-off for these calls is given here.

What was measured:
Staphylococcus aureus [1] = assay: Antibacterial agents against methicillin-resistant Staphylococcus aureus SA3 assessed as absence of growth measured after 18 hrs by micro-dilution method; format: functional
Staphylococcus aureus [2] = assay: Antibacterial agents against methicillin-resistant Staphylococcus aureus USA300 assessed as absence of growth measured after 18 hrs by micro-dilution method; format: functional
Staphylococcus aureus [3] = assay: Antibacterial agents against methicillin-sensitive Staphylococcus aureus SA1 assessed as absence of growth measured after 18 hrs by micro-dilution method; format: functional
Staphylococcus aureus [4] = assay: Antibacterial agents against methicillin-sensitive Staphylococcus aureus Newman assessed as absence of growth measured after 18 hrs by micro-dilution method; format: functional
Bacillus subtilis = assay: Antibacterial agents against Bacillus subtilis PS380 assessed as absence of growth measured after 18 hrs by micro-dilution method; format: functional
Staphylococcus aureus [5] = assay: In vivo antibacterial activity against methicillin-resistant Staphylococcus aureus SA3 infected in dorsal thorax of Drosophila melanogaster strain Oregon R assessed as survival time of Drosophila at 0.2 mg/ml measured upto 72 hrs; format: functional
Staphylococcus aureus [6] = assay: In vivo antibacterial activity against methicillin-resistant Staphylococcus aureus SA3 infected in dorsal thorax of Drosophila melanogaster strain Oregon R assessed as median survival time of Drosophila at 0.04 to 0.2 mg/ml measured upto 72 hrs; format: functional; conditions: dose 0.04-0.2 mg/ml
Staphylococcus aureus [7] = assay: Reduction in virulent activity of methicillin-resistant Staphylococcus aureus SA3 infected in dorsal thorax of Drosophila melanogaster strain Oregon R at 0.2 mg/ml measured upto 72 hrs; format: functional, organism-based
[8] = In vivo toxicity in Drosophila melanogaster strain Oregon R assessed as survival rate at 0.1 to 1 mg/ml measured upto 72 hrs relative to control; format: organism-based; conditions: 72 h, dose 0.1-1 mg/ml
[9] = Metabolic stability in human liver microsomes assessed as half life at 2 uM preincubated for 5 mins followed by NADPH addition and measured for 35 mins by LC/MS analysis; format: ADME, Microsome; conditions: preincubation 5 min
[10] = Metabolic stability in human liver microsomes assessed as intrinsic clearance at 2 uM preincubated for 5 mins followed by NADPH addition and measured for 35 mins by LC/MS analysis; format: ADME, Microsome; conditions: read-out: CLH

SMILES: CCCCn1c2c([n+](Cc3ccccc3)c1C)C(=O)c1ccccc1C2=O.[Br-]
- MIC (Staphylococcus aureus [1]): 12.5 µg/mL

SMILES: CN[C@H](CC(C)C)C(=O)N[C@H]1C(=O)N[C@@H](CC(N)=O)C(=O)N[C@H]2C(=O)N[C@H]3C(=O)N[C@H](C(=O)N[C@H](C(=O)O)c4cc(O)cc(O)c4-c4cc3ccc4O)[C@H](O)c3ccc(c(Cl)c3)Oc3cc2cc(c3O[C@@H]2O[C@H](CO)[C@@H](O)[C@H](O)[C@H]2O[C@H]2C[C@](C)(N)[C@H](O)[C@H](C)O2)Oc2ccc(cc2Cl)[C@H]1O [VANCOMYCIN]
- MIC (Staphylococcus aureus [1]): 6.25 µg/mL (≈ 4.31 µM)
- MIC (Staphylococcus aureus [2]): 6.25 µg/mL (≈ 4.31 µM)
- MIC (Staphylococcus aureus [3]): 1.56 µg/mL (≈ 1.08 µM)
- MIC (Staphylococcus aureus [4]): 1.56 µg/mL (≈ 1.08 µM)
- MIC (Bacillus subtilis): 0.19 µg/mL (≈ 0.131 µM)
- Time (Staphylococcus aureus [5]): 54 h
- Time (Staphylococcus aureus [6]): 40 h
- Activity (Staphylococcus aureus [7]): inactive

SMILES: Cc1n(CC(C)C)c2c([n+]1Cc1ccccc1)C(=O)c1ccccc1C2=O.[Br-]
- MIC (Staphylococcus aureus [1]): 3.13 µg/mL

SMILES: CCCC[n+]1c2c(n(C(C)C)c1C)C(=O)c1ccccc1C2=O.[Br-]
- MIC (Staphylococcus aureus [1]): 3.13 µg/mL

SMILES: CCCn1c2c([n+](Cc3ccco3)c1C)C(=O)c1ccccc1C2=O.[Br-]
- MIC (Staphylococcus aureus [1]): 12.5 µg/mL

SMILES: Cc1n(CC2CCCCC2)c2c([n+]1Cc1ccccc1)C(=O)c1ccccc1C2=O.[Br-]
- MIC (Staphylococcus aureus [1]): 1.56 µg/mL
- MIC (Staphylococcus aureus [3]): 1.56 µg/mL
- MIC (Bacillus subtilis): 0.78 µg/mL

SMILES: Cc1n(C2CCCCCC2)c2c([n+]1Cc1ccccc1)C(=O)c1ccccc1C2=O.[Br-]
- MIC (Staphylococcus aureus [1]): 6.25 µg/mL

SMILES: CCCCCCCCCCn1c2c([n+](Cc3ccccc3)c1C)C(=O)c1ccccc1C2=O.[Br-]
- MIC (Staphylococcus aureus [1]): 0.39 µg/mL
- MIC (Staphylococcus aureus [2]): 0.39 µg/mL
- MIC (Staphylococcus aureus [3]): 0.39 µg/mL
- MIC (Staphylococcus aureus [4]): 0.39 µg/mL
- MIC (Bacillus subtilis): 1.56 µg/mL
- Activity [8]: Toxic
- half-life at 2 µM [9]: 13.2 min
- CLint scaled at 2 µM [10]: 103 mL/min/kg

SMILES: CCCCCn1c2c([n+](Cc3ccco3)c1C)C(=O)c1ccccc1C2=O.[Br-]
- MIC (Staphylococcus aureus [1]): 3.13 µg/mL

SMILES: CCCCCCCCn1c2c([n+](CCCCCCCC)c1C)C(=O)c1ccccc1C2=O.[Br-]
- MIC (Staphylococcus aureus [1]): 3.13 µg/mL

SMILES: CCCCCCCCCn1c2c([n+](Cc3ccccc3)c1C)C(=O)c1ccccc1C2=O.[Br-]
- MIC (Staphylococcus aureus [1]): 0.39 µg/mL
- MIC (Staphylococcus aureus [2]): 0.39 µg/mL
- MIC (Staphylococcus aureus [3]): 0.39 µg/mL
- MIC (Staphylococcus aureus [4]): 0.39 µg/mL
- MIC (Bacillus subtilis): 1.56 µg/mL
- Activity [8]: Toxic
- half-life at 2 µM [9]: 51.8 min
- CLint scaled at 2 µM [10]: 26 mL/min/kg

SMILES: CCCC[n+]1c2c(n(C3CCC3)c1C)C(=O)c1ccccc1C2=O.[Br-]
- MIC (Staphylococcus aureus [1]): 25 µg/mL

SMILES: CCCC[n+]1c2c(n(CC3CC3)c1C)C(=O)c1ccccc1C2=O.[Br-]
- MIC (Staphylococcus aureus [1]): 12.5 µg/mL

SMILES: Cc1n(C2CC2)c2c([n+]1Cc1ccccc1)C(=O)c1ccccc1C2=O.[Br-]
- MIC (Staphylococcus aureus [1]): 6.25 µg/mL

SMILES: CCCCCn1c2c([n+](Cc3ccccc3)c1C)C(=O)c1ccccc1C2=O.[Br-]
- MIC (Staphylococcus aureus [1]): 1.56 µg/mL
- MIC (Staphylococcus aureus [3]): 3.13 µg/mL
- MIC (Bacillus subtilis): 6.25 µg/mL

SMILES: CCCCCn1c2c([n+](CCCCC)c1C)C(=O)c1ccccc1C2=O.[Br-]
- MIC (Staphylococcus aureus [1]): 3.13 µg/mL

SMILES: CCCCn1c2c([n+](Cc3ccco3)c1C)C(=O)c1ccccc1C2=O.[Br-]
- MIC (Staphylococcus aureus [1]): 6.25 µg/mL

SMILES: CCCC[n+]1c2c(n(CC(C)C)c1C)C(=O)c1ccccc1C2=O.[Br-]
- MIC (Staphylococcus aureus [1]): 3.13 µg/mL

SMILES: CCCCCC[n+]1c2c(n(CCCC)c1C)C(=O)c1ccccc1C2=O.[Br-]
- MIC (Staphylococcus aureus [1]): 3.13 µg/mL

SMILES: CCCCCCCCCn1c2c([n+](CCCC)c1C)C(=O)c1ccccc1C2=O.[Br-]
- MIC (Staphylococcus aureus [1]): 3.13 µg/mL

SMILES: CCCC[n+]1c2c(n(C(C)(C)C)c1C)C(=O)c1ccccc1C2=O.[Br-]
- MIC (Staphylococcus aureus [1]): 6.25 µg/mL

SMILES: COCC[n+]1c2c(n(Cc3cnccn3)c1C)C(=O)c1ccccc1C2=O.[Br-] [SEPANTRONIUM BROMIDE]
- MIC (Staphylococcus aureus [1]): 50 µg/mL

SMILES: CCCCCCCCn1c2c([n+](CCCC)c1C)C(=O)c1ccccc1C2=O.[Br-]
- MIC (Staphylococcus aureus [1]): 0.39 µg/mL
- MIC (Staphylococcus aureus [2]): 0.39 µg/mL
- MIC (Staphylococcus aureus [3]): 0.39 µg/mL
- MIC (Staphylococcus aureus [4]): 0.39 µg/mL
- MIC (Bacillus subtilis): 0.39 µg/mL
- Activity [8]: Non-Toxic
- half-life at 2 µM [9]: 11.6 min
- CLint scaled at 2 µM [10]: 125 mL/min/kg

SMILES: Cc1n(C(C)(C)C)c2c([n+]1Cc1ccccc1)C(=O)c1ccccc1C2=O.[Br-]
- MIC (Staphylococcus aureus [1]): 3.13 µg/mL
